Test results from US20220356186A1, “PERK INHIBITING PYRROLOPYRIMIDINE COMPOUNDS” (HiberCell, Inc., priority 2019, published 2022).
Read-outs that look alike come from different tables or passages of the source.

Columns and labels:
[1] = molecular target: T1, EIF2AK3 (PERK) catalytic domain (amino acids 536-1116) (Homo sapiens, UniProt Q9NZJ5); assay: PERK in vitro activity assay (isolated), TR-FRET kinase assay; assay type: biochemical; settings: isolated PERK enzyme, 1.5 μM ATP; read-out: Biochemical IC50
T1 construct: EIF2AK3 (PERK) catalytic domain (amino acids 536-1116)
T1 sequence (Q9NZJ5 536-1116): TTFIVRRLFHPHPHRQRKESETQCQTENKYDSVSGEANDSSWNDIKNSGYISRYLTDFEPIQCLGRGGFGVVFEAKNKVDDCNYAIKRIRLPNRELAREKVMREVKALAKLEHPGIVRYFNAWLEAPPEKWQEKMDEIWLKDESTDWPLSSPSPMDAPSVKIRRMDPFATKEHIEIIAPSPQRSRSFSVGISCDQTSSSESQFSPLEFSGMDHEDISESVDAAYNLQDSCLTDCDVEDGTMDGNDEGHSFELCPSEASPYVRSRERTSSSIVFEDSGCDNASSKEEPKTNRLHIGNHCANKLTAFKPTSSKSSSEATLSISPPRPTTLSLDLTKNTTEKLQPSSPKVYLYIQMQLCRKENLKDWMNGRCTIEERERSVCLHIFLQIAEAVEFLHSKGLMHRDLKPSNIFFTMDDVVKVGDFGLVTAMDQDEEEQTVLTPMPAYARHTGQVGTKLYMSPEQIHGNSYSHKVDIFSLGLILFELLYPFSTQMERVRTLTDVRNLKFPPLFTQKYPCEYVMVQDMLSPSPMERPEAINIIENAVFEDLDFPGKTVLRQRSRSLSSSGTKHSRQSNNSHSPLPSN
Description: PERK In Vitro Activity Assay (Isolated):
In vitro Inhibition of PERK Enzyme Activity (isolated) Recombinant human EIF2AK2 (PKR) catalytic domain (amino acids 252-551), EIF2AK3 (PERK) catalytic domain (amino acids 536-1116), GFP-eIF2a substrate, and Terbium-labelled phospho-eIF2a antibody is obtained (Invitrogen, Carlsbad, Calif.).
Express and purify HIS-SUMO-GCN2 catalytic domain (amino acids 584-1019) from E. coli. Perform TR-FRET kinase assays in the absence or presence of inhibitors in a reaction buffer consisting of 50 mM HEPES, pH 7.5, 10 mM MgCb, 1.0 mM EGTA, and 0.01% Brij-35, and 100-200 nM GFP-eIF2a substrate. […] Add test compound, initiate the reaction by addition of enzyme, and incubate at room temperature for 45 minutes. Stop the reaction by addition of EDTA to a final concentration of 10 mM, add Terbium-labelled phospho-eIF2a antibody at a final concentration of 2 nM, and incubate for 90 minutes. Monitor the resulting fluorescence in an EnVison® Multilabel reader (PerkinElmer, Waltham, Mass.). Determine TR-FRET ratios and the resulting IC50 values using a 4-parameter nonlinear logistic equation as shown: Y=(A+((B−A)/(1+((C/x)[…])))) where, Y=% specific inhibition, A=Bottom of the curve, B=Top of the curve, C=absolute IC50 (concentration causing 50% inhibition), and D=hill slope.

[2] = test system: GFP-eIF2α in HEK293 cells; assay: PERK cellular assay, TR-FRET in HEK293-EGFP-eIF2a cells after tunicamycin-induced ER stress; assay type: cell-based; settings: HEK293-EGFP-eIF2a cells, tunicamycin 2 hours, read-out: Cellular eIF2α IC50
Experimental: Stable cell lines were created in HEK293 cells using lentiviral particles harboring an expression vector for GFP-eIF2α. Cells were selected using puromycin and enriched using fluorescence activated cell sorting against GFP. HEK293-EGFP-eIF2a cells were plated at 5000 cells/well in 384-well assay plates and incubated overnight at 37° C., 5% CO2. Inhibitor compounds were added to the wells by Echo acoustic dispensing and incubated for 30 minutes at 37° C., 5% CO2 prior to induction of ER stress by addition of tunicamycin to […] for 2 hours. Cells were lysed and TR-FRET was measured in an EnVision plate reader (PerkinElmer). FRET ratio data was normalized to signal from lysates treated with DMSO vehicle control and plotted as percent inhibition against 10-point; 3-fold dilution series of inhibitors. IC50 values were calculated using 4-parameter logistical fitting in XLFit.

Structure (SMILES)	IC50 [1]	IC50 [2]	IC50 ([2]; Homo sapiens, HEK293, 2 h)
Cc1nc(N)c2c(-c3cnc(NC(=O)C(O)c4cccc(F)c4)cc3C)cn(C)c2n1 (centres unmarked) [Example 133, N-(5-(4-amino-2,7-dimethyl-7H-pyrrolo[2,3-d]pyrimidin-5-yl)-4-methylpyridin-2-yl)-2-(3-fluorophenyl)-2-hydroxyacetamide]	251 to 500 nM	4000 to 5000 nM	
Cc1nc(N)c2c(-c3ccc(NC(=O)C(O)c4cccc5c4OCC5)cc3C)cn(C)c2n1 (centres unmarked) [Example 63, N-(4-(4-amino-2,7-dimethyl-7H-pyrrolo[2,3-d]pyrimidin-5-yl)-3-methylphenyl)-2-(2,3-dihydrobenzofuran-7-yl)-2-hydroxyacetamide]	101 to 250 nM		2000 to 3000 nM
CCc1nc(N)c2c(-c3ccc(NC(=O)C(O)c4cccc(F)c4)cc3C)cn(C)c2n1 (centres unmarked) [Example 67, N-(4-(4-amino-2-ethyl-7-methyl-7H-pyrrolo[2,3-d]pyrimidin-5-yl)-3-methylphenyl)-2-(3-fluorophenyl)-2-hydroxyacetamide]	101 to 250 nM		1000 to 2000 nM
Cc1cc(NC(=O)CC2CCC2)ccc1-c1cn(C)c2ncnc(N)c12 [Example 164, N-(4-(4-amino-7-methyl-7H-pyrrolo[2,3-d]pyrimidin-5-yl)-3-methylphenyl)-2-cyclobutyl-acetamide]	51 to 100 nM		2000 to 3000 nM
Cc1nc(N)c2c(-c3ccc(NC(=O)C(O)c4cccc(F)c4)c(F)c3F)cn(C)c2n1 (single isomer, unassigned) [Example 109, N-(4-(4-amino-2,7-dimethyl-7H-pyrrolo[2,3-d]pyrimidin-5-yl)-2,3-difluorophenyl)-2-(3-fluorophenyl)-2-hydroxyacetamide]	251 to 500 nM	1000 to 2000 nM	
Cc1c(-c2cn(C)c3ncnc(N)c23)ccc(NC(=O)C(O)c2cccc(F)c2)c1F (centres unmarked) [Example 118, N-(4-(4-amino-7-methyl-7H-pyrrolo[2,3-d]pyrimidin-5-yl)-2-fluoro-3-methylphenyl)-2-(3-fluorophenyl)-2-hydroxyacetamide]	26 to 50 nM	251 to 500 nM	
Cc1cc(NC(=O)C(O)c2ccccc2C)ccc1-c1cn(C)c2ncnc(N)c12 (centres unmarked) [Example 39, N-(4-(4-amino-7-methyl-7H-pyrrolo[2,3-d]pyrimidin-5-yl)-3-methylphenyl)-2-hydroxy-2-(o-tolyl)acetamide]	1 to 25 nM		26 to 50 nM
Cc1nc(N)c2c(-c3ccc(NC(=O)C(O)c4cccc(C(F)(F)F)c4)cc3C)cn(C)c2n1 (centres unmarked) [Example 50, N-(4-(4-amino-2,7-dimethyl-7H-pyrrolo[2,3-d]pyrimidin-5-yl)-3-methylphenyl)-2-hydroxy-2-(3-(trifluoromethyl)phenyl)acetamide]	1 to 25 nM	1 to 25 nM	
Cc1nc(N)c2c(-c3ccc(NC(=O)C(O)c4cccc(F)c4)cc3OC(F)(F)F)cn(C)c2n1 (single isomer, unassigned) [Example 22, N-(4-(4-amino-2,7-dimethyl-7H-pyrrolo[2,3-d]pyrimidin-5-yl)-3-(trifluoromethoxy)phenyl)-2-(3-fluorophenyl)-2-hydroxyacetamide]	101 to 250 nM	> 5000 nM	
Cc1nc(N)c2c(-c3ccc(NC(=O)C(O)c4cccc(Cl)c4)cc3F)cn(C)c2n1 (centres unmarked) [Example 81, N-(4-(4-amino-2,7-dimethyl-7H-pyrrolo[2,3-d]pyrimidin-5-yl)-3-fluorophenyl)-2-(3-chlorophenyl)-2-hydroxyacetamide]	51 to 100 nM	101 to 250 nM	
Cn1cc(-c2ccc(NC(=O)C(O)c3cccc(F)c3)cc2)c2c(N)ncnc21 (centres unmarked) [Example 30, N-(4-(4-amino-7-methyl-7H-pyrrolo[2,3-d]pyrimidin-5-yl)phenyl)-2-(3-fluorophenyl)-2-hydroxyacetamide]	1 to 25 nM	101 to 250 nM	
Cc1nc(N)c2c(-c3ccc(NC(=O)C(O)c4cccc(F)c4)cc3F)cn(C)c2n1 (centres unmarked) [Example 79, N-(4-(4-amino-2,7-dimethyl-7H-pyrrolo[2,3-d]pyrimidin-5-yl)-3-fluorophenyl)-2-(3-fluorophenyl)-2-hydroxyacetamide]	51 to 100 nM	501 to 1000 nM	
Cc1nc(N)c2c(-c3ccc(NC(=O)C(O)c4cc(F)cc(F)c4)c(F)c3F)cn(C)c2n1 (single isomer, unassigned) [Example 113, N-(4-(4-amino-2,7-dimethyl-7H-pyrrolo[2,3-d]pyrimidin-5-yl)-2,3-difluorophenyl)-2-(3,5-difluorophenyl)-2-hydroxyacetamide]	1 to 25 nM	1 to 25 nM	

The next lines start with results.

IC50 [1]	Structure (SMILES)	IC50 [2]	IC50 ([2]; Homo sapiens, HEK293, 2 h)
1 to 25 nM	Cc1cc(NC(=O)C(O)c2cccc(C(F)(F)F)c2)ccc1-c1cn(C)c2ncnc(N)c12 (centres unmarked) [Example 47, N-(4-(4-amino-7-methyl-7H-pyrrolo[2,3-d]pyrimidin-5-yl)-3-methylphenyl)-2-hydroxy-2-(3-(trifluoromethyl)phenyl)acetamide]	1 to 25 nM	
1 to 25 nM	Cc1nc(N)c2c(-c3ccc(NC(=O)C(O)c4cccc(C(F)(F)F)c4)cc3F)cn(C)c2n1 (centres unmarked) [Example 78, N-(4-(4-amino-2,7-dimethyl-7H-pyrrolo[2,3-d]pyrimidin-5-yl)-3-fluorophenyl)-2-hydroxy-2-(3-(trifluoromethyl)phenyl)acetamide]		1 to 25 nM
1 to 25 nM	Cc1nc(N)c2c(-c3ccc(NC(=O)C(O)c4cccc(Cl)c4)cc3F)cn(C)c2n1 (centres unmarked) [Example 82, N-(4-(4-amino-2,7-dimethyl-7H-pyrrolo[2,3-d]pyrimidin-5-yl)-3-fluorophenyl)-2-(3-chlorophenyl)-2-hydroxyacetamide]	1 to 25 nM	
1 to 25 nM	Cc1nc(N)c2c(-c3ccc(NC(=O)C(O)c4cccc(C(F)(F)F)c4)c(F)c3F)cn(C)c2n1 (centres unmarked) [Example 107, N-(4-(4-amino-2,7-dimethyl-7H-pyrrolo[2,3-d]pyrimidin-5-yl)-2,3-difluorophenyl)-2-hydroxy-2-(3-(trifluoromethyl)phenyl)acetamide]	1 to 25 nM	
1 to 25 nM	COc1ccccc1CC(=O)Nc1ccc(-c2cn(C)c3ncnc(N)c23)c(C)c1 [Example 138, N-(4-(4-amino-7-methyl-7H-pyrrolo[2,3-d]pyrimidin-5-yl)-3-methylphenyl)-2-(2-methoxyphenyl)acetamide]		101 to 250 nM
1 to 25 nM	Cc1nc(N)c2c(-c3cc(F)c(NC(=O)C(O)c4cccc(F)c4)cc3C)cn(C)c2n1 (single isomer, unassigned) [Example 121, N-(4-(4-amino-2,7-dimethyl-7H-pyrrolo[2,3-d]pyrimidin-5-yl)-2-fluoro-5-methylphenyl)-2-(3-fluorophenyl)-2-hydroxyacetamide]	26 to 50 nM	
1 to 25 nM	CCc1cccc(C(O)C(=O)Nc2ccc(-c3cn(C)c4nc(C)nc(N)c34)c(F)c2)c1 (centres unmarked) [Example 76, N-(4-(4-amino-2,7-dimethyl-7H-pyrrolo[2,3-d]pyrimidin-5-yl)-3-fluorophenyl)-2-(3-ethylphenyl)-2-hydroxyacetamide]	1 to 25 nM	
1 to 25 nM	CCc1ccc(CC(=O)Nc2ccc(-c3cn(C)c4ncnc(N)c34)c(C)c2)cc1 [Example 147, N-(4-(4-amino-7-methyl-7H-pyrrolo[2,3-d]pyrimidin-5-yl)-3-methylphenyl)-2-(4-ethylphenyl)acetamide]		51 to 100 nM
1 to 25 nM	Cc1nc(N)c2c(-c3c(C)cc(NC(=O)C(O)c4cccc(F)c4)cc3C)cn(C)c2n1 (centres unmarked) [Example 126, N-(4-(4-amino-2,7-dimethyl-7H-pyrrolo[2,3-d]pyrimidin-5-yl)-3,5-dimethylphenyl)-2-(3-fluorophenyl)-2-hydroxyacetamide]		51 to 100 nM
